These are literature values, as cited in patent publication US6703367B1, “Methods for treating hot flashes and gynaecomastia” (Praecis Pharmaceuticals Inc., priority 2001, dated 2004).

The subject of one series is gynaecomastia. Particulars: for men in whom gynaecomastia was reduced: middle aged men.
The test system of the next series is hot flashes. Particulars: for reduce hot flashes to: progestin therapy.

Take `C#C[C@]1(O)CC[C@H]2[C@@H]3CCC4=Cc5oncc5C[C@]4(C)[C@H]3CC[C@@]21C` [DANAZOL]: in the series on gynaecomastia, the “men in whom gynaecomastia was reduced” value is reported as “approximately 70%”.
With `CC(=O)[C@@]1(O)CC[C@H]2[C@@H]3C[C@H](C)C4=CC(=O)CC[C@]4(C)[C@H]3CC[C@@]21C` [Medroxyprgesterone], the “reduce hot flashes to” value with hot flashes is on record as 75-100%.
On to `CC(=O)O[C@]1(C(C)=O)CC[C@H]2[C@@H]3C=C(C)C4=CC(=O)CC[C@]4(C)[C@H]3CC[C@@]21C` [Megestrol acetate], for which, in the series with hot flashes, the “reduce hot flashes to” value is listed as 25-85%.
With CLOMIPHENE, in the series with gynaecomastia (in vivo), the effect on gynaecomastia result was “unsuccessful”.
Consider Medthyldopa, for which the “decrease of hot flashes” value in the series with hot flashes (in vivo) is listed as 30%.
Tamoxifen: the “men in whom gynaecomastia was reduced” value in the series on gynaecomastia is on record as “approximately 70%”.
Take clonidine: the “effect on hot flashes, orally administered” value in the series on hot flashes (oral) is on record as “varied”. In addition, the “effect on hot flashes, administered transdermally” value with hot flashes (transdermal, hot flashes due to Tamoxifen) is “reduced the frequency and severity of hot flashes”.
